This is an account of results in patent US20220296667A1, “COMPOSITION FOR A[…] TREATING NARCOLEPSY, […] RICE BRAN POWDER AS ACTIVE INGREDIENT, AND PREPARATION METHOD THEREFOR” (RAPHAGEN, priority 2019, published 2022).

The conditions of data set [1]: background art; cited from earlier work.
Data set [2] relates to zebrafish. Conditions: zebrafish whose brain is damaged by PTZ or the like; stated as known; cited from earlier work.
Data set [3] has as its system zebrafish. In words: Dark/light transition of zebrafish. It counts as in vivo. The conditions noted are these: dark and light conditions at 10-minute intervals, distance moved at 2-minute intervals; FIGS. 3, 4, 5. As to the method:
The dark/light transition of zebrafish treated with the fermented rice bran powder obtained according to Example 1 was measured. Specifically, dark and light conditions were given at 10-minute intervals, and graphs for the distance moved at 2-minute intervals were measured (see FIGS. 3, 4, and 5).

The structures appear in SMILES notation.

As for `O=C(O)CCCO` [GHB, Gamma hydroxybutyrate], the “half-life (in words)” value in data set [1] is “short half-life”.

With `C1CCc2nnnn2CC1` [PTZ, Pentylenetetrazol], the color recognition result in the data set with zebrafish [2] was “color cannot be normally recognized”. Further, in the data set with zebrafish [3], the “behavior pattern to dark/light (distance moved)” value is reported as “moved regardless of the light/dark division”. One may read the half-life as how long it takes for the measured level to halve. On to `NC(=O)C[S+]([O-])C(c1ccccc1)c1ccccc1` (stereo not shown) [modafinil, Modafinil], for which the half-life in data set [1] is at least 15 h.
